Here are results for ten molecules from US5852034A, “Benzo(5,6)cycloheptapyridine cyclic ureas and lactams useful as farnesyl protein transferase inhibitors” (Schering Corporation, priority 1997, dated 1998).

One may read the IC50 as the point on the concentration scale where inhibition reaches its midpoint.

Molecules are shown by their SMILES.

The test system of experiment [1] is Ras processing in COS cells. In words: COS Cell IC50 (Cell-Based Assay), inhibition of Ras processing. The conditions noted are these: procedures described in WO 95/10516. The procedure: (§1) FPT IC50 (inhibition of farnesyl protein transferase, in vitro enzyme assay), COS Cell IC50 (Cell-Based Assay), GGPT IC50 (inhibition of geranylgeranyl protein transferase, in vitro enzyme assay), Cell Mat Assay, and anti-tumor activity (in vivo anti-tumor studies) are determined by the assay procedures described in WO 95/10516.

The target of experiment [2] is farnesyl protein transferase (Homo sapiens, UniProt P49354+P49356). Description: FPT IC50 (inhibition of farnesyl protein transferase, in vitro enzyme assay). It is filed as biochemical. The conditions noted are these: procedures described in WO 95/10516. The method, then:
as §1

Regarding `O=C(CN1CCCC1=O)N1CCC([C@H]2c3ncc(Br)cc3CCc3cc(Cl)cc(Br)c32)CC1` [Example 1, (+)-4-(3,10-Dibromo-8-chloro-6,11-dihydro-5H-benzo[5,6]cyclohepta-[1,2-b]pyridin-11-yl)-1-[(2-oxo-1-pyrrolidinyl)acetyl]piperidine], the IC50 in experiment [1] worked out at 0.5 µM; in experiment [2], 0.004 µM.

Turning to `O=C1CCCN1CCCC(=O)N1CCC([C@H]2c3ncc(Br)cc3CCc3cc(Cl)cc(Br)c32)CC1` [Example 3, (+)-4-(3,10-Dibromo-8-chloro-6,11-dihydro-5H-benzo[5,6]cyclohepta-[1,2-b]pyridin-11-yl)-1-[1-oxo-4-(2-oxo-1-pyrrolidinyl)butyl]piperidine], in experiment [2], the midpoint of inhibition, the IC50, lay at 0.085 µM. This lies in the double-digit nanomolar range.

In experiment [2], `O=C(CN1CCCCC1=O)N1CCC([C@H]2c3ncc(Br)cc3CCc3cc(Cl)cc(Br)c32)CC1` [Example 4, (+)-4-(3,10-Dibromo-8-chloro-6,11-dihydro-5H-benzo[5,6]cyclohepta-[1,2-b]pyridin-11-yl)-1-[(2-oxo-1-piperidinyl)acetyl]piperidine] displayed an IC50 of 0.0028 µM. This IC50 lies about 30-fold lower than the previous one.

Regarding `O=C1CCCCN1CCC(=O)N1CCC([C@H]2c3ncc(Br)cc3CCc3cc(Cl)cc(Br)c32)CC1` [Example 5, (+)-4-(3,10-Dibromo-8-chloro-6,11-dihydro-5H-benzo[5,6]cyclohepta-[1,2-b]pyridin-11-yl)-1-[1-oxo-3-(2-oxo-1-piperidinyl)propyl]piperidine], the IC50 in experiment [2] amounted to 0.019 µM. This IC50 is about 6.8-fold higher than that of the molecule before.

Molecule `O=C1CCCCN1CCCC(=O)N1CCC([C@H]2c3ncc(Br)cc3CCc3cc(Cl)cc(Br)c32)CC1` [Example 6, (+)-4-(3,10-Dibromo-8-chloro-6,11-dihydro-5H-benzo[5,6]cyclohepta-[1,2-b]pyridin-11-yl)-1-[1-oxo-4-(2-oxo-1-piperidinyl)butyl]piperidine] showed an IC50 in experiment [2] of 0.08 µM.

Regarding `O=C(CN1CCNC1=O)N1CCC([C@H]2c3ncc(Br)cc3CCc3cc(Cl)cc(Br)c32)CC1` [Example 7, (+)-4-(3,10-Dibromo-8-chloro-6,11-dihydro-5H-benzo[5,6]cyclohepta-[1,2-b]pyridin-11-yl)-1-[(2-oxo-1-imidazolidinyl)acetyl]piperidine], half-maximal inhibition in experiment [2] (IC50) required 0.023 µM.

For the molecule `O=C(CCCN1CCNC1=O)N1CCC([C@H]2c3ncc(Br)cc3CCc3cc(Cl)cc(Br)c32)CC1` [Example 9], inhibition in experiment [2] was half-maximal at 0.016 µM (IC50).

For `O=C(CN1CCCNC1=O)N1CCC([C@H]2c3ncc(Br)cc3CCc3cc(Cl)cc(Br)c32)CC1` [Example 10, (+)-4-(3,10-Dibromo-8-chloro-6,11-dihydro-5H-benzo[5,6]cyclohepta-[1,2-b]pyridin-11-yl)-1-[(hexahydro-2-oxo-1-pyrimidinyl)acetyl]piperidine], the IC50 in experiment [1] turned out to be 0.016 µM; in experiment [2], 0.0032 µM.

For `O=C(CCN1CCCNC1=O)N1CCC([C@H]2c3ncc(Br)cc3CCc3cc(Cl)cc(Br)c32)CC1` [Example 11, (+)-4-(3,10-Dibromo-8-chloro-6,11-dihydro-5H-benzo[5,6]cyclohepta-[1,2-b]pyridin-11-yl)-1-[1-oxo-3-(hexahydo-2-oxo-1-pyrimidinyl)-oxopropyl]piperidine], the IC50 in experiment [2] was found to be 0.02 µM.

With `O=C(CCCN1CCCNC1=O)N1CCC([C@H]2c3ncc(Br)cc3CCc3cc(Cl)cc(Br)c32)CC1` [Example 12, (+)-4-(3,10-Dibromo-8-chloro-6,11-dihydro-5H-benzo[5,6]cyclohepta[1,2-b]pyridin-11-yl)-1-[4-(hexahydo-2-oxo-1-pyrimidinyl)oxobutyl]piperidine], the IC50 in experiment [2] amounted to 0.056 µM.
